The conditions of the data set: Liquid, Ebulliometric method (Recirculating still).

The structures appear in SMILES notation. ± gives the expanded uncertainty stated by the source.

As usually defined, the vapor or sublimation pressure is the pressure of vapour in equilibrium with the condensed phase.

For `CCO` [ethanol], the “vapor or sublimation pressure” value runs as follows: (321 K) 26.41 ± 0.21 kPa; (325 K) 32.02 ± 0.26 kPa; (330 K) 40.44 ± 0.33 kPa; (335 K) 50.67 ± 0.41 kPa; (340 K) 63 ± 0.51 kPa; (345 K) 77.77 ± 0.63 kPa. Further, the “vapor or sublimation pressure” value by setting is: (350 K) 95.35 ± 0.77 kPa; (355 K) 116.13 ± 0.93 kPa; (359 K) 135.37 ± 1.1 kPa.

As for `ClC(Cl)Cl` [trichloromethane], the “vapor or sublimation pressure” value by setting is: (305 K) 34.81 ± 0.14 kPa; (310 K) 42.47 ± 0.17 kPa; (315 K) 51.43 ± 0.21 kPa; (320 K) 61.85 ± 0.25 kPa; (325 K) 73.88 ± 0.3 kPa; (330 K) 87.71 ± 0.36 kPa. For the same molecule, the “vapor or sublimation pressure” value (335 K) is recorded as 103.5 ± 0.42 kPa, the “vapor or sublimation pressure” value (340 K) amounted to 121.45 ± 0.49 kPa and the “vapor or sublimation pressure” value (342 K) stood at 129.28 ± 0.52 kPa.
